# Experimental data taken from patent US8445636B2, “Antimicrobial and anticancer lipopeptides” (Yeda Research & Development Co. Ltd., priority 2003, dated 2013).
# Where two headings read alike, the source gives them in different places. Non-standard residues stand in square brackets, D forms with d. Residues, ends and D or L forms follow the SMILES beside them. *: point of attachment. Palmitoyl = CCCCCCCCCCCCCCCC(=O)*; Decanoyl = CCCCCCCCCC(=O)*
# Assays:
# Assay type in all cases: cell-based
# [1] = tested on: Cryptococcus neoformans ATCC MYA-422; test: microbe, parasite or virus in culture
# [2] = tested on: Aspergillus niger ATCC 9642
# Experimental: The antifungal activity of the lipopeptides was examined in sterile 96-well plates (Nunc F96 microtiter plates) in a final volume of 200 μL as follows: 100 µl of a suspension containing fungi at a concentration of 1×10^4 Colony-Forming Units (CFU)/ml in culture medium (RPMI 1640, 0.165 M MOPS with L-glutamine, without NaHCO3) at pH 7.4 or pH 5.5 (adjustment of the pH was done by diluted solutions of HCl and NaOH) were added to 100 μl of water containing the peptide in serial 2-fold dilutions in water. The fungi were incubated in the presence of the lipopeptides for 24-48 h at 35° C. in a Binder KB115 incubator under agitation. Growth inhibition was determined by measuring the absorbance at 620 nm with a Microplate autoreader E1309 (Bio-Tek Instruments). Antifungal activity is expressed as the minimal inhibitory concentration (MIC), the concentration at which 100% inhibition of fungi growth was observed after the incubation time mentioned above. The fungi used were: Aspergillus niger ATCC 9642, Candida albicans ATCC 10231 and Cryptococcus neoformans ATCC 66031. If not indicated otherwise, the fungi growth was detected at pH 7.4.
# [3] = tested on: Candida albicans ATCC 10231; test: microbe, parasite or virus in culture; conditions: for MIC: read-out: Minimal Inhibitory Concentration, Candida Albicans (ATCC 10231)
# In short: (§1)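 In this assay, each strain, prepared at 1×10^4 CFU/ml before mixing, met serial twofold peptide dilutions in RPMI 1640 buffered with 0.165 M MOPS. Unless noted, pH was 7.4; a pH 5.5 condition was also run. After 24-48 h incubation (35 °C, agitated), wells were scored at 620 nm for total inhibition.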
# [4] = tested on: B. subtilis ATCC 6051
# [5] = tested on: Pseudomonas aeruginosa ATCC 27853
# In short: (§2)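 Values are MICs from microdilution in LB (pH 7.4 unless noted) with bacteria at 1×10^6 CFU/ml before 1:1 mixing, read at 600 nm after 18-20 h, 37° C.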
# [6] = tested on: Escherichia coli ATCC 25922
# In short: as §2
# [7] = tested on: Acinetobacter baumannii ATCC 19606
# In short: as §2
# [8] = tested on: Staphylococcus aureus ATCC 6538P
# In short: as §2
# [9] = tested on: Aspergillus fumigatus ATCC 26430; test: microbe, parasite or virus in culture
# [10] = tested on: Aspergillus flavus ATCC 9643
# [11] = tested on: human red blood cells (hRBC); test: Hemolytic activity, release of hemoglobin at 540 nm
# Experimental: Fresh human red blood cells (hRBC) with EDTA were rinsed 3 times with PBS (35 mM phosphate buffer/0.15 M NaCl, pH 7.3) by centrifugation for 10 min at 800 g and resuspended in PBS. Peptides dissolved in PBS were then added to 50 μl of a solution of the stock hRBC in PBS to reach a final volume of 100 μl (final erythrocyte concentration, 4% v/v). The resulting suspension was incubated under agitation for 60 min at 37° C. The samples were then centrifuged at 800×g for 10 min. Release of hemoglobin was monitored by measuring the absorbance of the supernatant at 540 nm. Controls for zero hemolysis (blank) and 100% hemolysis consisted of hRBC suspended in PBS and Triton 1%, respectively.
# [12] = tested on: Cryptococcus neoformans ATCC 66031; test: microbe, parasite or virus in culture; conditions: Table 10; pH 7.4
# In short: as §1
# [13] = tested on: Enterococcus faecalis ATCC 29212; conditions: Table 4; pH 7.4
# In short: as §2
# [14] = tested on: Enterobacter cloacae ATCC 49141; conditions: Table 4; pH 7.4
# In short: as §2
# [15] = tested on: methicilin-resistant Staphylococcus aureus (MRSA) ATCC 700698; conditions: Table 4; pH 7.4
# In short: as §2
# [16] = tested on: E. aerogenes ATCC 35029; conditions: ATCC 35029, pH 7.4
# In short: as §2
# [17] = tested on: E. coli ATCC 35218; conditions: ATCC 35218, pH 7.4
# In short: as §2
# [18] = Table 14, lipopeptides vs parent peptides, pH 7.4
# [19] = Table 8, lipopeptides vs parent peptides, pH 7.4
Compound,"Minimal Inhibitory Concentration, Cryptococcus neoformans (ATCC MYA-422) [1, 18]","Minimal Inhibitory Concentration, Aspergillus niger (ATCC 9642) [2, 18]","MIC [3, 18]","Minimal Inhibitory Concentration, B. subtilis (ATCC 6051) [4, 19]","Minimal Inhibitory Concentration, P. aeruginosa ATCC 27853 [5, 19]","Minimal Inhibitory Concentration, E. coli (ATCC 25922) [6, 19]","Minimal Inhibitory Concentration, A. baumannii ATCC 19606 [7, 19]","Minimal Inhibitory Concentration, S. aureus ATCC 6538P [8, 19]","Minimal Inhibitory Concentration, Aspergillus fumigatus (ATCC 26430) [9, 18]","Minimal Inhibitory Concentration, Aspergillus flavus (ATCC 9643) [10, 18]","Minimal Inhibitory Concentration, Cryptococcus neoformans (ATCC MYA-422) ([1]; ATCC MYA-422, pH 7.4)","Minimal Inhibitory Concentration, Aspergillus niger (ATCC 9642) ([2]; ATCC 9642, pH 7.4)","MIC ([3]; ATCC 10231, pH 7.4)","Minimal Inhibitory Concentration, B. subtilis (ATCC 6051) ([4]; ATCC 6051, pH 7.4)","Minimal Inhibitory Concentration, P. aeruginosa ATCC 27853 ([5]; ATCC 27853, pH 7.4)","Minimal Inhibitory Concentration, E. coli (ATCC 25922) ([6]; ATCC 25922, pH 7.4)","Minimal Inhibitory Concentration, A. baumannii ATCC 19606 ([7]; ATCC 19606, pH 7.4)","Minimal Inhibitory Concentration, S. aureus ATCC 6538P ([8]; ATCC 6538, pH 7.4)","Minimal Inhibitory Concentration, Aspergillus fumigatus (ATCC 26430) ([9]; ATCC 26430, pH 7.4)","Minimal Inhibitory Concentration, Aspergillus flavus (ATCC 9643) ([10]; ATCC 9643, pH 7.4)",also measured
"C[C@H](NC(=O)[C@H](C)NC(=O)[C@H](CCCCN)NC(=O)[C@@H](C)NC(=O)[C@@H](C)NC(=O)[C@H](C)NC(=O)[C@@H](N)CCCCN)C(=O)N[C@H](C)C(=O)N[C@@H](CCCCN)C(=O)N[C@H](C)C(=O)N[C@@H](C)C(=O)N[C@@H](CCCCN)C(N)=O [DK4A8, reference compound] (H-KA[dA][dA]KAA[dA]K[dA]AK-NH2; N-terminus assumed)",>100 µM,>100 µM,>100 µM,>100 µM,>100 µM,>100 µM,>100 µM,>100 µM,>100 µM,>100 µM,,,,,,,,,,,
"NCCCC[C@@H](N)C(=O)NCC(=O)NCC(=O)NCC(=O)N[C@H](CCCCN)C(=O)NCC(=O)NCC(=O)NCC(=O)N[C@H](CCCCN)C(=O)NCC(=O)NCC(=O)N[C@H](CCCCN)C(N)=O [DK4G8, reference compound] (H-[dK]GGG[dK]GGG[dK]GG[dK]-NH2; N-terminus assumed)",,,,,,,,,,,>100 µM,>100 µM,>100 µM,>100 µM,>100 µM,>100 µM,>100 µM,>100 µM,>100 µM,>100 µM,
"CC(C)[C@H](NC(=O)[C@H](CCCCN)NC(=O)[C@H](NC(=O)[C@H](NC(=O)[C@@H](NC(=O)[C@@H](N)CCCCN)C(C)C)C(C)C)C(C)C)C(=O)N[C@H](C(=O)N[C@@H](C(=O)N[C@@H](CCCCN)C(=O)N[C@@H](C(=O)N[C@H](C(=O)N[C@@H](CCCCN)C(N)=O)C(C)C)C(C)C)C(C)C)C(C)C [DK4V8, reference compound] (H-KV[dV][dV]KVV[dV]K[dV]VK-NH2; N-terminus assumed)",,,,,,,,,,,50 µM,>100 µM,>100 µM,60 µM,>100 µM,>100 µM,>100 µM,>100 µM,>100 µM,>100 µM,
"CCCCCCCCCCCCCCCC(=O)N[C@@H](CCCCN)C(=O)N[C@@H](C)C(=O)N[C@H](C)C(=O)N[C@H](C)C(=O)N[C@@H](CCCCN)C(=O)N[C@@H](C)C(=O)N[C@@H](C)C(=O)N[C@H](C)C(=O)N[C@@H](CCCCN)C(=O)N[C@H](C)C(=O)N[C@@H](C)C(=O)N[C@@H](CCCCN)C(N)=O [lipopeptide 5, (CH3—(CH2)14—CO—)-Lys-Ala-D-Ala-D-Ala-Lys-Ala-Ala-D-Ala-Lys-D-Ala-Ala-Lys-NH2] (Palmitoyl-KA[dA][dA]KAA[dA]K[dA]AK-NH2)",1.56 µM,10 µM,12.5 µM,3.125 µM,6.25 µM,6.25 µM,6.25 µM,12.5 µM,100 µM,80 µM,,,,,,,,,,,"hemolytic activity ([11]; at concentrations lower than 12 μM, human red blood cells (FIGS. 1-5)): do not exhibit significant hemolytic activity; hemolytic activity ([11]; at concentrations lower than 12.5 μM, human red blood cells, 1 h): not hemolytic; Minimal Inhibitory Concentration, C. neoformans ATCC 66031 [12]: 1.56 µM; Minimal Inhibitory Concentration, C. albicans ATCC 10231 ([3]; Table 10, pH 7.4): 12.5 µM; Minimal Inhibitory Concentration, E. faecalis [13]: 12.5 µM; Minimal Inhibitory Concentration, P. Aeruginosa ([5]; Table 4, pH 7.4): 6.25 µM; Minimal Inhibitory Concentration, E. cloacae [14]: 25 µM; Minimal Inhibitory Concentration, S. aureus (MRSA) [15]: 12.5 µM; Minimal Inhibitory Concentration, E. coli ([6]; Table 4, pH 7.4): 6.25 µM; Minimal Inhibitory Concentration, A. Baumaannii ([7]; Table 4, pH 7.4): 6.25 µM; Minimal Inhibitory Concentration, S. aureus ([8]; Table 4, pH 7.4): 12.5 µM; Minimal Inhibitory Concentration, A. fumigatus ATCC 26430 ([9]; Table 10, pH 7.4): 100 µM"
"CCCCCCCCCCCCCCCC(=O)N[C@@H](CCCCN)C(=O)N[C@H](C(=O)N[C@@H](C(=O)N[C@@H](C(=O)N[C@@H](CCCCN)C(=O)N[C@H](C(=O)N[C@H](C(=O)N[C@@H](C(=O)N[C@@H](CCCCN)C(=O)N[C@@H](C(=O)N[C@H](C(=O)N[C@@H](CCCCN)C(N)=O)C(C)C)C(C)C)C(C)C)C(C)C)C(C)C)C(C)C)C(C)C)C(C)C [lipopeptide 7, (CH3—(CH2)14—CO—)-Lys-Val-D-Val-D-Val-Lys-Val-Val-D-Val-Lys-D-Val-Val-Lys-NH2] (Palmitoyl-KV[dV][dV]KVV[dV]K[dV]VK-NH2)",,,,,,,,,,,3.125 µM,>100 µM,3.125 µM,>100 µM,>100 µM,>100 µM,>100 µM,>100 µM,>100 µM,>100 µM,
"CCCCCCCCCC(=O)N[C@H](CC(C)C)C(=O)N[C@@H](CCCCN)C(=O)N[C@@H](CCCCN)C(=O)N[C@H](CC(C)C)C(=O)N[C@H](CC(C)C)C(=O)N[C@@H](CCCCN)C(=O)N[C@@H](CCCCN)C(=O)N[C@H](CC(C)C)C(=O)N[C@H](CC(C)C)C(=O)N[C@@H](CCCCN)C(=O)N[C@@H](CCCCN)C(=O)N[C@H](CC(C)C)C(N)=O [lipopeptide 21, (CH3-(CH2)8-CO-)-D-Leu-Lys-Lys-D-Leu-D-Leu-Lys-Lys-D-Leu-D-Leu-Lys-Lys-D-Leu-NH2] (Decanoyl-[dL]KK[dL][dL]KK[dL][dL]KK[dL]-NH2)",,,,,,,,,,,,,,,12.5 µM,,,6.25 µM,,,"Minimal Inhibitory Concentration, C. neoformans ATCC MYA-422 ([1]; ATCC MYA-422, pH 7.4): 1.56 µM; Minimal Inhibitory Concentration, C. albicans ATCC 10231 ([3]; ATCC 10231, pH 7.4): 25 µM; Minimal Inhibitory Concentration, E. aerogenes ATCC 35029 [16]: 50 µM; Minimal Inhibitory Concentration, E. coli ATCC 35218 [17]: 12.5 µM; Minimal Inhibitory Concentration, A. fumigatus ATCC 26430 ([9]; ATCC 26430, pH 7.4): 12.5 µM"
